From patent EP2853532B1, “1,2,4-oxadiazole derivatives as allosteric modulators of metabotropic glutamate receptors belonging to group III” (Instytut Farmakologii Polskiej Akademii Nauk, priority 2013, dated 2015)

Target: T1, recombinant human mGlu4a receptor (Homo sapiens, UniProt Q14833)
T1 construct: expressed in transfected cells
Assay: mGluR4 assay on T-Rex-293 cell line; cyclic AMP level by HTRF in the presence of forskolin and glutamate
Format: cell-based
Conditions: EC50 for potentiation of glutamate response; forskolin 10 uM; mean of at least three independent experiments in duplicates
Description: mGluR4 assay on T-Rex™-293 Cell line - expressing recombinant human mGlu4 receptor.
The compounds of the present invention are positive allosteric modulator of III group of metabotropic glutamate receptors, subtype 4. Their activity was examined on recombinant human mGlu4a receptor by detecting level of cyclic AMP in the presence of forskolin, adenylyl cyclase activator. The positive allosteric modulators provided in the present invention are expected to increase the functional activity and/or maximal efficacy of glutamate or other orthosteric agonists at mGluR4 receptor.
Plazmid construct. The cDNA fragment encoding human metabotropic receptor 4, variant 1 (accession number: NM_000841, NCBI Nucleotide Database) was cloned into the BamHI/NotI sites of pcDNA5/FRT/TO vector, under the control of a tetracycline regulated promoter (Invitrogen, Poland).
Cell culture and transfection. HEK293 cell line containing an inducible expression system (Flp-In T-Rex 293 cell line, Invitrogen, Poland) was maintained in Dulbecco's modified Eagle's medium supplemented with 10% fetal bovine serum, 2mM L-Glutamine (supplemented DMEM, LONZA, Poland), blastycidin and zeocin. T-Rex 293 cells were transfected with mixture of pTet-hmGluR4 and pOG44 (Invitrogen, Poland) plazmids and GeneJuice transfection reagent (Merck Millipore, Poland) according to the manufacturer's instructions. Cells were grown in supplemented DMEM with hygromycin B (75µg/ml) allowed selection of cells with stably integrated one copy of pTet-hmGluR4 plazmid. Expression of mGluR4 is induced by Tetracycline treatment.
Cell preparation before assay. Stable transfected cells were grown to 60% confluency with supplemented DMEM. Two days before experiment mGluR4 expression was induced by adding tetracycline in concentration 0,75µg/ml. 40h before experiment cells were incubated in a L-Glutamine free medium.
Cyclic AMP measurement. cAMP was measured quantitatively by cAMP dynamic 2 (Cisbio Biossays, France) according to manufacture instructions. cAMP dynamic 2 assay (Cisbio Biossays, France) is method based on homogenous time-resolved fluorescence. cAMP dynamic 2 is a competitive immunoassay between native cAMP produced by cells and the cyclic AMP labeled with, a fluorescence dye. The tracer binding is visualized by antibody anti - cAMP labeled with Eu^3+ cryptate. The specific signal is inversely proportional to the concentration of cAMP in the sample.
Incubation of cells with all compounds was performed in 96 well plates. Each well were supplement with HHB containing 130 mM NaCl, 5,4 mM KCl, 1,8 mM CaCl2, 0,8 mM MgSO4, 0,9 mM NaH2PO4, 25 mM glucose and 20 mM HEPES, pH 7.4 with or without glutamate and with or without tested compound and forskolin (10 uM final concentration) in total volume of 50 ul. Assay was started by adding 50 ul of HHB buffer with cells to each well. Assay was performed in 37° C. After 5 min of incubation 10 ul of suspension containing 2000 cells were transferred to white 384 well plates (784080, Greiner bio-one) containing of 5 ul of cAMP-d2 conjugate in lysis buffer (cAMP dynamic 2, Cisbio Bioassays, France) in each well. Than was added 5 ul of cryptate conjugate in lysis buffer (cAMP dynamic 2, Cisbio Bioassays, France). After 1 h incubation in room temperature the fluorescence intensity of the assay plate were measured at 314 nm excitation, and 620 nm and 665 nm emission in Infinite M1000 (Tecan) microplate reader. Data were expressed as the ratio of 665 nm/620 nm. All liquid handling operations were performed using EVO 2000 system (Tecan, Switzerland).
Potentiation of the glutamate response of mGluR4 receptor by the invented compounds was observed as a decrease of EC50 value for the glutamate in the presence of these molecules in the compare of EC50 value in the absence of compounds. A decrease in the EC50 for glutamate in the presence of tested compound was an indicator of degree of mGluR4 positive allosteric modulation at a given concentration of the sample compound. […]

T1 sequence (Q14833 33-912): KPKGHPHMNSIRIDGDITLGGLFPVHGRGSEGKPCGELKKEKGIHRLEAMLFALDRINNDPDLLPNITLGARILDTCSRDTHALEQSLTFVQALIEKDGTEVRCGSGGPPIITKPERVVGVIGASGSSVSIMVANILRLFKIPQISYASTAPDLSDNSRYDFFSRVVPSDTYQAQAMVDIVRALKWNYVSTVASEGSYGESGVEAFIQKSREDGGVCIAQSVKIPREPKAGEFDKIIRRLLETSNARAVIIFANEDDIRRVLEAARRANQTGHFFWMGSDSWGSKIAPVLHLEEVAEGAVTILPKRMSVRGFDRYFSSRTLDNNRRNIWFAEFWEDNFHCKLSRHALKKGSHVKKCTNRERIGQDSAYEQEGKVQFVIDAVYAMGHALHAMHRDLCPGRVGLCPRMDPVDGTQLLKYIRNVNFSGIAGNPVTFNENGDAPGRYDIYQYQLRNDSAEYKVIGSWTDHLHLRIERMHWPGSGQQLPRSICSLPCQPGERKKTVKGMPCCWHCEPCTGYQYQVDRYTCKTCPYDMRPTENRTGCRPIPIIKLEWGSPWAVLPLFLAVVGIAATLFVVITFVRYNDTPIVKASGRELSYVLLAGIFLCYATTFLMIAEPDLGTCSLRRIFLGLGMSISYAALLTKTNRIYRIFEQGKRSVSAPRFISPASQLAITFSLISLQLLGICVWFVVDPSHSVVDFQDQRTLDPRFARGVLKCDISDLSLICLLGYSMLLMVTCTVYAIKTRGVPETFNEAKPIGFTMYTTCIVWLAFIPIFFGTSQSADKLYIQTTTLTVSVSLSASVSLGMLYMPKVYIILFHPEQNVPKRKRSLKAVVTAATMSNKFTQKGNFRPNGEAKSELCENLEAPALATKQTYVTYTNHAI

EC50 [nM]	SMILES
< 300	COc1ccc(C(=O)Nc2ccc(-c3nc(-c4ccccc4)no3)cc2)cc1 [Example 49, 4-methoxy-N-[4-(3-phenyl-1,2,4-oxadiazol-5-yl)phenyl]benzamide]
< 300	O=C(Nc1ccc(-c2noc(-c3ccccc3)n2)c(C(F)(F)F)c1)c1ccccn1 [Example 28]
< 300	Cc1cc(NC(=O)c2ccccn2)ccc1-c1noc(-c2ccccc2)n1 [Example 30, N-[3-methyl-4-(5-phenyl-1,2,4-oxadiazol-3-yl)phenyl]pyridine-2-carboxamide]
< 300	COc1ccccc1-c1nc(-c2ccc(NC(=O)c3ccccn3)cc2F)no1 [Example 27, N-{4-[5-(2-methoxyphenyl)-1,2,4-oxadiazol-3-yl]-3-fluorophenyl}pyridine-2-carboxamide]

Same assay, conditions: T-REx-293; percent of mGluR4 activity with tested compound and glutamate at maximally activating concentration (100%); mean of at least three independent experiments; read-out: % Glu Max

Emax [%]	SMILES
105 to 135	COc1ccc(-c2nc(-c3ccc(NC(=O)c4ccncc4)cc3)no2)cc1 [Example 6, N-{4-[5-(4-methoxyphenyl)-1,2,4-oxadiazol-3-yl]phenyl}pyridine-4-carboxamide]
99.2 to 119	Cn1cccc1C(=O)Nc1ccc(-c2nc(-c3ccccc3)no2)cc1 [Example 54, 1-methyl-N-[4-(3-phenyl-1,2,4-oxadiazol-5-yl)phenyl]-1H-pyrrole-2-carboxamide]
99.2 to 119	O=S(=O)(Nc1ccc(F)cc1F)c1ccc(-c2noc(-c3ccccn3)n2)cc1 [Example 46, N-(2,4-difluorophenyl)-4-[5-(pyridin-2-yl)-1,2,4-oxadiazol-3-yl]benzene-1-sulfonamide]
99.2 to 119	O=C(Nc1ccc(-c2noc(-c3ccc(F)cc3Cl)n2)c(Cl)c1)c1ccccn1 [Example 22, N-{3-chloro-4-[5-(2-chloro-4-fluorophenyl)-1,2,4-oxadiazol-3-yl]phenyl}pyridine-2-carboxamide]
105 to 135	O=C(Nc1ccc(-c2noc(-c3ccc(F)cc3Cl)n2)c(F)c1)c1ccccn1 [Example 26, N-{4-[5-(2-chloro-4-fluorophenyl)-1,2,4-oxadiazol-3-yl]-3-fluorophenyl} pyridine-2-carboxamide]
99.2 to 119	COc1cc(NC(=O)c2ccccn2)ccc1-c1noc(-c2ccccc2Cl)n1 [Example 17, N-{4-[5-(2-chlorophenyl)-1,2,4-oxadiazol-3-yl]-3-methoxyphenyl}pyridine-2-carboxamide]
105 to 135	O=C(Nc1ccc(-c2nc(-c3ccccc3)no2)cc1)c1ccc([N+](=O)[O-])cc1 [Example 50, 4-nitro-N-[4-(3-phenyl-1,2,4-oxadiazol-5-yl)phenyl]benzamide]
99.2 to 119	COc1cc(NC(=O)c2cccc(F)n2)ccc1-c1noc(-c2ccccc2Cl)n1 [Example 32, N-{4-[5-(2-chlorophenyl)-1,2,4-oxadiazol-3-yl]-3-methoxyphenyl}-6-fluoropyridine-2-carboxamide]
105 to 135	COc1cc(NC(=O)c2cccc(F)n2)ccc1-c1noc(-c2ccccc2F)n1 [Example 40, 6-fluoro-N-{4-[5-(2-fluorophenyl)-1,2,4-oxadiazol-3-yl]-3-methoxyphenyl} pyridine-2-carboxamide]
99.2 to 119	COc1cc(NC(=O)c2cccc(Cl)n2)ccc1-c1noc(-c2ccccc2Cl)n1 [Example 34, 6-chloro-N-{4-[5-(2-chlorophenyl)-1,2,4-oxadiazol-3-yl]-3-methoxyphenyl}pyridine-2-carboxamide]
99.2 to 119	O=S(=O)(Nc1ccccc1Cl)c1ccc(-c2noc(-c3ccccc3)n2)cc1 [Example 44, N-(2-chlorophenyl)-4-(5-phenyl-1,2,4-oxadiazol-3-yl)benzene-1-sulfonamide]
99.2 to 119	COc1cc(NC(=O)c2ncc(Cl)cc2F)ccc1-c1noc(-c2ccccc2Cl)n1 [Example 33, 5-chloro-N-{4-[5-(2-chlorophenyl)-1,2,4-oxadiazol-3-yl]-3-methoxyphenyl}-3-fluoropyridine-2-carboxamide]
99.2 to 119	O=C(Nc1ccc(-c2nc(-c3ccccc3)no2)cc1)c1ccccc1 [Example 47, N-[4-(3-phenyl-1,2,4-oxadiazol-5-yl)phenyl]benzamide]
99.2 to 119	COc1cc(NC(=O)c2ccccn2)ccc1-c1noc(-c2ccc(F)cc2Cl)n1 [Example 19, N-{4-[5-(2-chloro-4-fluorophenyl)-1,2,4-oxadiazol-3-yl]-3-methoxyphenyl} pyridine-2-carboxamide]
105 to 118	COc1ccc(C(=O)Nc2ccc(-c3nc(-c4ccccc4)no3)cc2)cc1 [Example 49, 4-methoxy-N-[4-(3-phenyl-1,2,4-oxadiazol-5-yl)phenyl]benzamide]
99.2 to 119	O=C(Nc1ccc(-c2noc(-c3ccccc3Cl)n2)c(C(F)(F)F)c1)c1ccccn1 [Example 29, N-{4-[5-(2-chlorophenyl)-1,2,4-oxadiazol-3-yl]-3-(trifluoromethyl)phenyl} pyridine-2-carboxamide]
99.2 to 119	O=C(Nc1ccc(-c2nc(-c3ccccc3)no2)cc1)c1cccc(Cl)c1 [Example 48, 3-chloro-N-[4-(3-phenyl-1,2,4-oxadiazol-5-yl)phenyl]benzamide]
105 to 118	O=C(Nc1ccc(-c2noc(-c3ccccc3)n2)c(C(F)(F)F)c1)c1ccccn1 [Example 28]
105 to 118	Cc1cc(NC(=O)c2ccccn2)ccc1-c1noc(-c2ccccc2)n1 [Example 30, N-[3-methyl-4-(5-phenyl-1,2,4-oxadiazol-3-yl)phenyl]pyridine-2-carboxamide]
99.2 to 119	O=C(Nc1ccc(-c2noc(-c3ccccc3Cl)n2)c(Cl)c1)c1cccc(F)n1 [Example 42]
99.2 to 119	COc1cc(NC(=O)c2nc(Cl)ccc2Cl)ccc1-c1noc(-c2ccccc2F)n1 [Example 41, 3,6-dichloro-N-{4-[5-(2-fluorophenyl)-1,2,4-oxadiazol-3-yl]-3-methoxyphenyl}pyridine-2-carboxamide]
105 to 118	COc1ccccc1-c1nc(-c2ccc(NC(=O)c3ccccn3)cc2F)no1 [Example 27, N-{4-[5-(2-methoxyphenyl)-1,2,4-oxadiazol-3-yl]-3-fluorophenyl}pyridine-2-carboxamide]
105 to 135	COc1cc(NC(=O)c2ccncn2)ccc1-c1noc(-c2ccccc2Cl)n1 [Example 38, N-{4-[5-(2-chlorophenyl)-1,2,4-oxadiazol-3-yl]-3-methoxyphenyl} pyrimidine-4-carboxamide]
105 to 135	Cc1cc(NC(=O)c2ccccn2)ccc1-c1noc(-c2ccccc2Cl)n1 [Example 31, N-{4-[5-(2-chlorophenyl)-1,2,4-oxadiazol-3-yl]-3-methylphenyl}pyridine-2-carboxamide]

Target: mGluR8 (Homo sapiens, UniProt O00222)
Assay: not given
Conditions: cited from earlier work

mGluR8, sequence (O00222 34-908, species assumed): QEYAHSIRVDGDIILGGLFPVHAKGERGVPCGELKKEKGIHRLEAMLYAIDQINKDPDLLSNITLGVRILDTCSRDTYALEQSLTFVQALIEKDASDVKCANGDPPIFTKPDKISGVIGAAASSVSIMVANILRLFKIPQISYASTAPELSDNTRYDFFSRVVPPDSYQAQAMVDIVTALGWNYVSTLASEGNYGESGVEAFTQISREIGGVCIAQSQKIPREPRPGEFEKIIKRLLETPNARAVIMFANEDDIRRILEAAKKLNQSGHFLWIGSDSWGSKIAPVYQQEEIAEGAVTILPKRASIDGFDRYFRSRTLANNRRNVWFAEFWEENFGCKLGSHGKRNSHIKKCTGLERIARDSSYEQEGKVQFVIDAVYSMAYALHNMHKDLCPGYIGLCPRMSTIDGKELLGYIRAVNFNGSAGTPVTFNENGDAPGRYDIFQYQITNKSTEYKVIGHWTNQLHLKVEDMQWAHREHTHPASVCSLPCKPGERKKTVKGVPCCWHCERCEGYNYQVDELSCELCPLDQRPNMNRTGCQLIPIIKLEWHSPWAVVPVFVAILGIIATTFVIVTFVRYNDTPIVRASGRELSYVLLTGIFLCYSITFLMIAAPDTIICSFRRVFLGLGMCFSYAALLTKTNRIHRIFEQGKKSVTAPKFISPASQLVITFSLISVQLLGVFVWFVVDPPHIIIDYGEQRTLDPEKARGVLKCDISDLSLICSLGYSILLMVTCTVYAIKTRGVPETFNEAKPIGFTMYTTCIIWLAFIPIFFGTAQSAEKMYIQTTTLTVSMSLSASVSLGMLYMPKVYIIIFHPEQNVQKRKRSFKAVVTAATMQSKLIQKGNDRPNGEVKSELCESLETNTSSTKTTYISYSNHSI

SMILES	selectivity for mGluR8 over mGluR4 [fold]
N[C@H](C(=O)O)c1ccc(C(=O)O)c(C(=O)O)c1 [(S)-3,4-DCPG]	100

Target: mGluR1 (Homo sapiens, UniProt Q13255)
Assay: not given
Conditions: cited from earlier work

mGluR1, sequence (Q13255 19-1194): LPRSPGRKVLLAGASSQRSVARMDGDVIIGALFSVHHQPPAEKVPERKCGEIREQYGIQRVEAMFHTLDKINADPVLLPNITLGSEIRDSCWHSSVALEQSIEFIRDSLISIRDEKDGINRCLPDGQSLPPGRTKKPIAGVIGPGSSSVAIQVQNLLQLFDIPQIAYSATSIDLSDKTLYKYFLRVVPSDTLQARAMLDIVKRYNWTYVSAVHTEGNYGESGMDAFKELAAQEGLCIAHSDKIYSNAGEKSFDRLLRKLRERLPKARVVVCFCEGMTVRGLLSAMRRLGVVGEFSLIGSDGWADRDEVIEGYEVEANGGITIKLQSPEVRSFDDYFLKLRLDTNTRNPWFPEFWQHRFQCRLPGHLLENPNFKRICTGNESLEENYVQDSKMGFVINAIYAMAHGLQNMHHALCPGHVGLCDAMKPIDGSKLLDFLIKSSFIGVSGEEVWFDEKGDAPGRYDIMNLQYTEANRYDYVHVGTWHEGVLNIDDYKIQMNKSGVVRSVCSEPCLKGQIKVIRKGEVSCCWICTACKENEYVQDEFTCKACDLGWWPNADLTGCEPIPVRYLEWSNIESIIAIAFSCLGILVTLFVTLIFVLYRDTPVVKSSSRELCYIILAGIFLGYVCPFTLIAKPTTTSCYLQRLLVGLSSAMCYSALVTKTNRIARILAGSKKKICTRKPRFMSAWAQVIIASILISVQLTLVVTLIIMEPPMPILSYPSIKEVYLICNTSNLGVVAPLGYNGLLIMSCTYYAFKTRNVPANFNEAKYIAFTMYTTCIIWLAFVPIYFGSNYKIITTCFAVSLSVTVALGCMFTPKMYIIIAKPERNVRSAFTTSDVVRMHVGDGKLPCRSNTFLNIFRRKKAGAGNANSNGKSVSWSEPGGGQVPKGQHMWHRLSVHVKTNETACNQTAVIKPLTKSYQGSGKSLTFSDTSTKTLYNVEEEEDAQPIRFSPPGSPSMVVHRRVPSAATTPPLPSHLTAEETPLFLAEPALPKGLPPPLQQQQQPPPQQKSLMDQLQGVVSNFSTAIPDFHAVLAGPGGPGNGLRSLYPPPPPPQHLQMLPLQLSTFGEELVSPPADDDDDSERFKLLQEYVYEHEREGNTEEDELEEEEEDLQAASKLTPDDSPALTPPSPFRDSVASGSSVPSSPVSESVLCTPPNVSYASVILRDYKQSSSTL

SMILES	partial antagonist of mGluR1 [%]
O=C(Nc1ccccc1)C12CC1C(=NO)c1ccccc1O2 (single isomer, unassigned; (-)) [(-)PHCCC, N-phenyl-7-(hydroxyimino)cyclopropan[b]chromen-1a-carboxamide]	30
